24 compounds from patent US6541497B1, “Hypoglycemic and hypolipidemic compounds” (Eli Lilly and Company, priority 1996, dated 2003) can be followed below.

The test system of series [1] is Male obese-diabetic viable yellow (A^vy) mice. Briefly: Serum/blood glucose after 14 days of feeding compound admixed in chow. The series is classed as in vivo. As to the method: (§1) Male obese-diabetic viable yellow (A^vy) mice were divided into two groups of 6 each. One group was fed repelletized Purina 5008 Chow and the second group was fed a repelletized chow consisting of Purina 5008 Chow, admixed with varying doses of the candidate compound. Blood samples were taken before the experiment was initiated and 14 days after initiation. Body weight and food consumption were monitored. The blood glucose level after 14 days of treatment was measured and recorded as a percent of the initial value, compared to the untreated control (first) group. The results are presented in the table below and include the dose of the candidate compound as a weight percent of the amount incorporated into the diet. The positive control is a known hypoglycemic agent (J. Med. Chem. 35:2617, 1992) administered in the same way as a compound of the present invention.

Series [2] shares this test system. Nature of the series: Serum/plasma triglycerides after 14 days in the same feeding study. The series is classed as in vivo. The following applies: untreated about 4 mmol/mL. As to the method:
as §1
In the same feeding study described above, plasma triglycerides were measured against a glycerol standard using reagents from Sigma Kit No. 339 (St. Louis, Mo.), adapted for assay on the Monarch System (Instrumentation Laboratory, Lexington, Mass.). Day 14 levels are recorded below as mM of triglycerides per mL. Serum triglyceride values for untreated animals averaged about 4 mmol/mL.

[3] abbreviates: dose 0.03 (mg/100 g food) in diet.
The mark [4] stands for this setting: dose 0.01 (mg/100 g food) in diet.

What is called melting point is the temperature of the solid-liquid transition.

With `O=C(NC(Cc1cccc(OCCc2coc(-c3ccccc3)n2)c1)C(=O)O)OCc1ccccc1` (stereo not drawn) [Example No. 21, α-(3-[2-(2-Phenyl-4-oxazolyl)ethoxy]benzyl)-N-CBZ glycine], the melting point is 149 to 151 °C (dec.). The “Serum Glucose after 14 days % of day 0 value” (shortened to “Serum Glucose after 14 days %”) in series [1] (setting [3]) was 48 % of day 0 value. For the same compound, the Serum Triglyceride after 14 days in series [2] (setting [3]) amounted to 1.4 mM.

Regarding `COc1ccc(COC(=O)N[C@@H](Cc2ccc(OCCc3coc(-c4ccccc4)n3)cc2)C(=O)O)cc1` [Example 18, O-[2-(2-Phenyl-4-oxazolyl)ethyl]-N-(4-methoxybenzyloxycarbonyl)-L-tyrosine], the melting point lay within 132.5 to 135.5 °C.

Turning to `Cc1oc(-c2ccccc2)nc1CCOc1ccc(CC(NC(=O)OCc2ccccc2)C(=O)O)cc1` (racemic) [Example No. 9, O-[2-(5-Methyl-2-phenyl-4-oxazolyl)ethyl]-N-CBZ-D,L-tyrosine], the melting point fell in the range of 142 to 143 °C. The “Serum Glucose after 14 days %” value in series [1] (setting [3]) is given as 66 % of day 0 value. In series [2] (setting [3]), this compound gave a Serum Triglyceride after 14 days of 2.5 mM.

Consider `O=C(O)[C@H](Cc1ccc(OCCc2coc(-c3ccccc3)n2)cc1)NS(=O)(=O)Cc1ccccc1` [Example 14, O-[2-(2-Phenyl-4-oxazolyl)ethyl]-N-phenylmethylsulfonyl-L-tyrosine], for which the melting point was in the range of 141 to 143 °C.

For `N[C@@H](Cc1ccc(OCCc2coc(-c3ccccc3)n2)cc1)C(=O)N(O)C(=O)OCc1ccccc1` [Example 11, O-[2-(2-Phenyl-4-oxazolyl)ethyl]-N-CBZ-L-tyrosine hydroxamic acid], the melting point fell in the range of 198 to 199 °C.

`CN(C(=O)OCc1ccccc1)[C@@H](Cc1ccc(OCCc2coc(-c3ccccc3)n2)cc1)C(=O)O` [Example No. 8, O-[2-(2-Phenyl-4-oxazolyl)ethyl]-N-methyl-N-CBZ-L-tyrosine]: the “Serum Glucose after 14 days %” value in series [1] (dose 0.06 (mg/100 g food) in diet) is given as 75 % of day 0 value. This compound returned a Serum Triglyceride after 14 days in series [2] (setting [3]) of 3.6 mM.

On to `Cc1oc(-c2ccccc2)nc1CCOc1ccc(C[C@H](NC(=O)OCc2ccccc2)C(=O)O)cc1` [Example No. 22, O-[2-(5-Methyl-2-phenyl-4-oxazolyl)ethyl]-N-CBZ-L-tyrosine], for which the melting point was 75 to 95 °C. In addition, the “Serum Glucose after 14 days %” value in series [1] (setting [3]) is recorded as 53 % of day 0 value.

`O=C(N[C@@H](Cc1ccc(OCCc2cccc3ccccc23)cc1)C(=O)O)OCc1ccccc1` [Example 15, O-[2-(1-Naphthyl)ethyl]-N-CBZ-L-tyrosine] came in with a melting point of 80 to 83 °C.

As to `NC(=O)[C@H](Cc1ccc(OCCc2coc(-c3ccccc3)n2)cc1)NC(=O)OCc1ccccc1` [Example No. 10, O-[2-(2-Phenyl-4-oxazolyl)ethyl]-N-CBZ-L-tyrosine carboxamide], the “Serum Glucose after 14 days %” value in series [1] (setting [3]) was 88 % of day 0 value.

Consider `O=C(N[C@@H](Cc1ccc(OCCc2coc(-c3ccccc3)n2)cc1)C(=O)O)OCc1ccc(C(F)(F)F)cc1` [Example 17, O-[2-(2-Phenyl-4-oxazolyl)ethyl]-N-(4-trifluoromethylbenzyloxycarbonyl)-L-Tyrosine], for which the melting point was in the range of 177 to 180.5 °C.

With `O=C(N[C@@H](Cc1ccc(OCCc2coc(-c3ccccc3)n2)cc1)C(=O)O)OCc1ccccc1` [Example No. 1, O-[2-(2-Phenyl-4-oxazolyl)ethyl]-N-CBZ-L-tyrosine], the melting point lay in the range of 105 to 111 °C. Further, the “Serum Glucose after 14 days %” value in series [1] (setting [3]) is 49 % of day 0 value. In addition, in series [2] (setting [3]), the Serum Triglyceride after 14 days was determined as 1.3 mM.

Consider `O=C(N[C@@H](Cc1ccc(OCCc2coc(-c3ccccc3)n2)cc1)C(=O)[O-])OCc1ccccc1.[Na+]` [Example No. 2, O-[2-(2-Phenyl-4-oxazolyl)ethyl]-N-CBZ-L-tyrosine, sodium salt], for which the melting point is 204 to 207 °C. Further, in series [1] (setting [3]), the “Serum Glucose after 14 days %” value is 67 % of day 0 value. In series [2] (setting [3]), this compound gave a Serum Triglyceride after 14 days of 3.3 mM.

In turn, `O=C(N[C@@H](COCc1cccc(OCCc2coc(-c3ccccc3)n2)c1)C(=O)O)OCc1ccccc1` [Example No. 24, O-(3-(2-(2-Phenyl-4-oxazolyl)ethoxy]benzyl)-N-CBZ serine] displayed a melting point of 55 to 57 °C. The “Serum Glucose after 14 days %” value in series [1] (setting [4]) is reported as 88 % of day 0 value. In series [2] (setting [4]), this compound displayed a Serum Triglyceride after 14 days of 0.3 mM.

`CCCCc1ccc(COC(=O)N[C@@H](Cc2ccc(OCCc3coc(-c4ccccc4)n3)cc2)C(=O)O)cc1` [Example 19, O-[2-(2-Phenyl-4-oxazolyl)ethyl]-N-(4-n-Butylbenzyloxycarbonyl)-L-tyrosine] gave a melting point of 86 to 89 °C.

With `O=C(N[C@@H](Cc1ccc(OCCc2coc(-c3ccccc3)n2)cc1)C(=O)O)c1ccccc1` [Example No. 4, O-[2-(2-Phenyl-4-oxazolyl)ethyl]-N-BZ-L-tyrosine], the “Serum Glucose after 14 days %” value in series [1] (setting [3]) was 60 % of day 0 value. This compound had a Serum Triglyceride after 14 days in series [2] (setting [3]) of 1.5 mM.

`Cc1ccc(C(=O)N[C@@H](Cc2ccc(OCCc3coc(-c4ccccc4)n3)cc2)C(=O)O)cc1` [Example No. 6, O-[2-(2-Phenyl-4-oxazolyl)ethyl]-N-4-methylbenzoyl-L-tyrosine]: the melting point lay within 180 to 182 °C. Moreover, the “Serum Glucose after 14 days %” value in series [1] (setting [3]) is 65 % of day 0 value. The same compound came in with a Serum Triglyceride after 14 days in series [2] (setting [3]) of 2.3 mM.

`O=C(N[C@@H](Cc1ccc(OCCc2coc(-c3ccccc3)n2)cc1)C(=O)O)OCc1ccc(Br)cc1` [Example 16, O-[2-(2-Phenyl-4-oxazolyl)ethyl]-N-(4-bromobenzyloxycarbonyl)-L-tyrosine] came in with a melting point of 173 to 176 °C.

As for “4-[2-(2-Phenyl-4-oxazolyl)ethoxy]benzyl-N-CBZ-L-serine [Example No. 7]”, the “Serum Glucose after 14 days %” value in series [1] (setting [3]) is 34 % of day 0 value. For the same compound, the Serum Triglyceride after 14 days in series [2] (setting [3]) was 0.4 mM.

In turn, `N[C@@H](Cc1ccc(OCCc2coc(-c3ccccc3)n2)cc1)C(=O)O` [Example 3, O-[2-(2-Phenyl-4-oxazolyl)ethyl]-L-tyrosine] yielded a melting point of 231 to 235 °C.

With `O=C(Cc1ccccc1)N[C@@H](Cc1ccc(OCCc2coc(-c3ccccc3)n2)cc1)C(=O)O` [Example No. 5, O-[2-(2-Phenyl-4-oxazolyl)ethyl]-N-phenylacetyl-L-tyrosine], the melting point was in the range of 146 to 151 °C. Further, the “Serum Glucose after 14 days %” value in series [1] (setting [3]) is listed as 57 % of day 0 value.

On to `O=C(N[C@@H](Cc1ccc(OCCc2coc(-c3ccccc3)n2)cc1)C(=O)O)c1ccc(Cl)cc1` [Example 13, O-[2-(2-Phenyl-4-oxazolyl)ethyl]-N-4-chlorobenzoyl-L-tyrosine], for which the melting point was 158 to 161 °C.

Turning to `O=C(COc1ccccc1)N[C@@H](Cc1ccc(OCCc2coc(-c3ccccc3)n2)cc1)C(=O)O` [Example 12, O-[2-(2-Phenyl-4-oxazolyl)ethyl]-N-phenoxyacetyl-L-tyrosine], the melting point lay in the range of 94 to 97 °C.

As to `CC(C)(Oc1ccc(Cl)cc1)C(=O)O` [clofibric acid, reference compound], the Serum Triglyceride after 14 days in series [2] (dose 0.10 (mg/100 g food) in diet) stood at 1.9 mM.

The compound `O=C(NCc1ccccc1)N[C@@H](Cc1ccc(OCCc2coc(-c3ccccc3)n2)cc1)C(=O)O` [Example 20, O-[2-(2-Phenyl-4-oxazolyl)ethyl]-N-(N′-Benzylcarbamoyl)-L-tyrosine] displayed a melting point of 196.5 to 198 °C.
